From patent US9629864B2 (priority 2013, dated 2017)

Key:
[1] = tested on: mouse model of acute hemolytic uremic syndrome (type 2 Shiga toxin); parameters: species or system mice; details: in vivo, 200 mg/kg
Hela cells = details: 72 h
[2] = tested on: mouse model of acute hemolytic uremic syndrome (type 2 Shiga toxin); parameters: species or system mice; details: in vivo, 200 mg/kg; remark: listed apart in the source
yeast-type fungi = details: cited from earlier work
[3] = tested on: mouse model of acute hemolytic uremic syndrome (type 2 Shiga toxin); parameters: species or system mice; details: in vivo, 200 mg/kg; remark: listed apart in the source

For O=C(O)[C@H]1O[C@@H](Oc2cc3oc(-c4ccccc4)cc(=O)c3c(O)c2O)[C@H](O)[C@@H](O)[C@@H]1O [baicalin], the “pathological changes of kidney” value [1] was “only a minor hemorrhage existed in the kidney tissue, and there was no significant difference compared with mice in normal group”, the “inhibition of cytotoxicity of Hela cells caused by type 2 Shiga toxin” value (Hela cells) was “significantly inhibited the cytotoxicity of Hela cells caused by type 2 Shiga toxin, in a dose-dependent manner” and the “survival rates of mice” value [2] was “significantly increased”. The “minimal inhibitory concentration (MIC)” value (yeast-type fungi) was 70 to 100 µg/mL, the “content of blood urea nitrogen (BUN) in mouse serum, drug administration group vs normal control group” value [3] was “no significant difference” and the “content of creatinine in mouse serum, drug administration group vs normal control group” value [3] was “no significant difference”.
